This note sets out measurements from patent publication US8759535B2, “Substituted fused imidazole derivatives, pharmaceutical compositions, and methods of use thereof” (High Point Pharmaceuticals, LLC, priority 2010, dated 2014).

Where a name gives a salt, the structure may show the parent alone.

For the first test, the system named is HMOX1. In words: HMOX1 Protein Assay (immunostaining of HO-1 in NHLF cells, GE InCell 1000). Particulars: Homo sapiens, fold change above DMSO treated cells, 3 μM compound (asterisk), 16 h. Format: cell-based. In a few lines: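 NHLF cells seeded overnight in FGM-2, then exposed to compound or DMSO vehicle for 16 h, fixed, and immunostained for HO-1 with Hoechst nuclear counterstain; imaged on InCell 1000. Values are fold change over DMSO-treated cells, generally at 5 μM (0.8% DMSO), with asterisked entries at 3 μM.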
What is called fold induction is the signal under treatment as a multiple of the control signal. In turn, `Cn1c(Nc2nc3ccc(OC(F)(F)F)cc3s2)nc2cc(C(=O)NCCCN)ccc21` [Example 344, 1-Methyl-2-(6-trifluoromethoxy-benzothiazol-2-ylamino)-1H-benzoimidazole-5-carboxylic acid (3-amino-propyl)-amide hydrochloride] registered a fold induction at 3 µM of 25.7.

Compound `C[C@@H](O)CN1CC[C@@H](NC(=O)c2ccc3c(c2)nc(Nc2nc4ccc(Cl)cc4s2)n3C)C1` [Example 296, 2-(6-Chloro-benzothiazol-2-ylamino)-1-methyl-1H-benzoimidazole-5-carboxylic acid [(R)-1-((R)-2-hydroxy-propyl)-pyrrolidin-3-yl]-amide] registered a fold induction at 3 µM of 34.6.

`Cn1c(Nc2nc3ccc(Cl)cc3s2)nc2cc(C(=O)NCCOCCN)ccc21` [Example 269, 2-(6-Chloro-benzothiazol-2-ylamino)-1-methyl-1H-benzoimidazole-5-carboxylic acid [2-(2-amino-ethoxy)-ethyl]-amide] displayed a fold induction at 3 µM of 19.9.

Take `CC(O)C(=O)N1CC[C@@H](NC(=O)c2ccc3c(c2)nc(Nc2nc4ccc(Cl)cc4s2)n3C)C1` (stereo in doubt) [Example 295, 2-(6-Chloro-benzothiazol-2-ylamino)-1-methyl-1H-benzoimidazole-5-carboxylic acid [(R)-1-((R)-2-hydroxy-propionyl)-pyrrolidin-3-yl]-amide]: the fold induction at 3 µM was found to be 29.

`CNC(=O)CNC(=O)c1ccc2c(c1)nc(Nc1nc3ccc(C(F)(F)F)cc3s1)n2C` [Example 381, 1-Methyl-2-(6-trifluoromethyl-benzothiazol-2-ylamino)-1H-benzoimidazole-5-carboxylic acid methylcarbamoylmethyl-amide] had a fold induction at 3 µM of 28.2.

On to `C[C@@H](CO)CCNC(=O)c1ccc2c(c1)nc(Nc1nc3ccc(Cl)cc3s1)n2C` [Example 224, 2-(6-Chloro-benzothiazol-2-ylamino)-1-methyl-1H-benzoimidazole-5-carboxylic acid ((R)-4-hydroxy-3-methyl-butyl)-amide], for which the fold induction at 3 µM stood at 15.5.

Still in this test, the particulars now being: Homo sapiens, fold change above DMSO treated cells, 5 μM compound, 16 h.
For `Cn1c(Nc2nc3ccc(Cl)cc3s2)nc2cc(C(=O)NCCC#N)ccc21` [Example 213, 2-(6-Chloro-benzothiazol-2-ylamino)-1-methyl-1H-benzoimidazole-5-carboxylic acid (2-cyano-ethyl)-amide], the fold induction at 5 µM came to 48.6.

In turn, `Cn1c(Nc2nc3ccc(OC(F)(F)F)cc3s2)nc2cc(C(=O)NCC(=O)N3CCCC(CO)C3)ccc21` (centres unmarked) [Example 440, 1-Methyl-2-(6-trifluoromethoxy-benzothiazol-2-ylamino)-1H-benzoimidazole-5-carboxylic acid [2-(3-hydroxymethyl-piperidin-1-yl)-2-oxo-ethyl]-amide] yielded a fold induction at 5 µM of 28.2.

`CN1CCC[C@@H](NC(=O)CNC(=O)c2ccc3c(c2)nc(Nc2nc4ccc(Cl)cc4s2)n3C)C1` [Example 388, 2-(6-Chloro-benzothiazol-2-ylamino)-1-methyl-1H-benzoimidazole-5-carboxylic acid [((R)-1-methyl-piperidin-3-ylcarbamoyl)-methyl]-amide]: the fold induction at 5 µM was 22.

Compound `Cn1c(Nc2nc3ccc(OC(F)(F)F)cc3s2)nc2cc(C(=O)NC(C)(C)C(=O)O)ccc21` [Example 148, 2-Methyl-2-{[1-methyl-2-(6-trifluoromethoxy-benzothiazol-2-ylamino)-1H-benzimidazole-5-carbonyl]-amino}-propionic acid] came in with a fold induction at 5 µM of 12.

In turn, `CCn1c(Nc2nc3ccc(OC(F)(F)F)cc3s2)nc2cc(C(=O)O)ccc21` [Example 154, 1-Ethyl-2-(6-trifluoromethoxy-benzothiazol-2-ylamino)-1H-benzoimidazole-5-carboxylic acid] showed a fold induction at 5 µM of 27.1.

In turn, `COCCn1c(Nc2nc3ccc(OC(F)(F)F)cc3s2)nc2cc(C(=O)NCC(=O)N3CCN(C)CC3)ccc21` [Example 189, 1-(2-Methoxy-ethyl)-2-(6-trifluoromethoxy-benzothiazol-2-ylamino)-1H-benzoimidazole-5-carboxylic acid [2-(4-methyl-piperazin-1-yl)-2-oxo-ethyl]-amide] returned a fold induction at 5 µM of 24.6.

On to `CCn1c(Nc2nc3ccc(Cl)cc3s2)nc2cc(C(=O)NCCOC)ccc21` [Example 177, 2-(6-Chloro-benzothiazol-2-ylamino)-1-ethyl-1H-benzoimidazole-5-carboxylic acid (2-methoxy-ethyl)-amide], for which the fold induction at 5 µM was found to be 30.3.

`CCOC(C)CNC(=O)c1ccc2c(c1)nc(Nc1nc3ccc(OC(F)(F)F)cc3s1)n2C` (centres unmarked) [Example 54, 1-Methyl-2-(6-trifluoromethoxy-benzothiazol-2-ylamino)-1H-benzoimidazole-5-carboxylic acid (2-ethoxy-propyl)-amide]: the fold induction at 5 µM is 18.5.

For the compound `Cn1c(Nc2nc3ccc(OC(F)(F)F)cc3s2)nc2ccc(C#N)cc21` [Example 195, 1-Methyl-2-(6-trifluoromethoxy-benzothiazol-2-ylamino)-1H-benzoimidazole-6-carbonitrile], the fold induction at 5 µM is 4.4.

With `CN(C)C(=O)CNC(=O)c1cnc2c(c1)nc(Nc1nc3ccc(OC(F)(F)F)cc3s1)n2C` [Example 74, 3-Methyl-2-(6-trifluoromethoxy-benzothiazol-2-ylamino)-3H-imidazo[4,5-b]pyridine-6-carboxylic acid dimethylcarbamoylmethyl-amide], the fold induction at 5 µM turned out to be 11.1.

Compound `Cn1c(Nc2nc3cc(F)c(F)cc3s2)nc2cc(C(=O)NCCO)ccc21` [Example 36, 2-(5,6-Difluoro-benzothiazol-2-ylamino)-1-methyl-1H-benzoimidazole-5-carboxylic acid (2-hydroxy-ethyl)-amide] came in with a fold induction at 5 µM of 13.8.

`CN(C)C(=O)CCNC(=O)c1ccc2c(c1)nc(Nc1nc3ccc(OC(F)(F)F)cc3s1)n2C` [Example 135, 1-Methyl-2-(6-trifluoromethoxy-benzothiazol-2-ylamino)-1H-benzimidazole-5-carboxylic acid (2-dimethylcarbamoyl-ethyl)-amide]: the fold induction at 5 µM is 49.6.

`CCN(CC)C(=O)CNC(=O)c1ccc2c(c1)nc(Nc1nc3ccc(OC(F)(F)F)cc3s1)n2C` [Example 140, 1-Methyl-2-(6-trifluoromethoxy-benzothiazol-2-ylamino)-1H-benzimidazole-5-carboxylic acid diethylcarbamoylmethyl-amide]: the fold induction at 5 µM came to 19.3.

Regarding `COC(=O)C(C)(C)NC(=O)c1ccc2c(c1)nc(Nc1nc3ccc(OC(F)(F)F)cc3s1)n2C` [Example 145, 2-Methyl-2-{[1-methyl-2-(6-trifluoromethoxy-benzothiazol-2-ylamino)-1H-benzimidazole-5-carbonyl]-amino}-propionic acid methyl ester], the fold induction at 5 µM stood at 7.1.

Compound `CN(C)C(=O)CCCNC(=O)c1ccc2c(c1)nc(Nc1nc3ccc(Cl)cc3s1)n2C` [Example 376, 2-(6-Chloro-benzothiazol-2-ylamino)-1-methyl-1H-benzoimidazole-5-carboxylic acid (3-dimethylcarbamoyl-propyl)-amide] returned a fold induction at 5 µM of 19.1.

Regarding `Cn1c(Nc2nc3ccc(Cl)cc3s2)nc2cc(C(=O)NCCOCCC#N)ccc21` [Example 266, 2-(6-Chloro-benzothiazol-2-ylamino)-1-methyl-1H-benzoimidazole-5-carboxylic acid [2-(2-cyano-ethoxy)-ethyl]-amide], the fold induction at 5 µM was 57.

In turn, `CCNC(=O)c1cnc2c(c1)nc(Nc1nc3ccc(OC(F)(F)F)cc3s1)n2C` [Example 76, 3-Methyl-2-(6-trifluoromethoxy-benzothiazol-2-ylamino)-3H-imidazo[4,5-b]pyridine-6-carboxylic acid ethylamide] had a fold induction at 5 µM of 22.5.

`CCNC(=O)c1ccc2c(c1)nc(Nc1nc3ccc(OC(F)(F)F)cc3s1)n2CC` [Example 156, 1-Ethyl-2-(6-trifluoromethoxy-benzothiazol-2-ylamino)-1H-benzoimidazole-5-carboxylic acid ethylamide] came in with a fold induction at 5 µM of 21.

On to `Cn1c(Nc2nc3ccc(OC(F)(F)F)cc3s2)nc2cc(C(=O)N3CCN(CCO)CC3)ccc21` [Example 305, [4-(2-Hydroxy-ethyl)-piperazin-1-yl]-[1-methyl-2-(6-trifluoromethoxy-benzothiazol-2-ylamino)-1H-benzoimidazol-5-yl]-methanone], for which the fold induction at 5 µM was determined as 41.7.

For `CCn1c(Nc2nc3ccc(OC(F)(F)F)cc3s2)nc2cc(C(=O)NCC(=O)N3CCN(C)CC3)ccc21` [Example 190, 1-Ethyl-2-(6-trifluoromethoxy-benzothiazol-2-ylamino)-1H-benzoimidazole-5-carboxylic acid [2-(4-methyl-piperazin-1-yl)-2-oxo-ethyl]-amide], the fold induction at 5 µM was 23.4.

Consider `Cn1c(Nc2nc3ccc(OC(F)(F)F)cc3s2)nc2cc(C(=O)NCCCn3cccn3)ccc21` [Example 11, 1-Methyl-2-(6-trifluoromethoxy-benzothiazol-2-ylamino)-1H-benzoimidazole-5-carboxylic acid (3-pyrazol-1-yl-propyl)-amide], for which the fold induction at 5 µM is 25.

`Cn1c(Nc2nc3ccc(OC(F)(F)F)cc3s2)nc2cc(C(=O)NCC(=O)NCc3ccc(O)cc3)ccc21` [Example 389, 1-Methyl-2-(6-trifluoromethoxy-benzothiazol-2-ylamino)-1H-benzoimidazole-5-carboxylic acid [(4-hydroxy-benzylcarbamoyl)-methyl]-amide] yielded a fold induction at 5 µM of 38.6.

Consider `Cn1c(Nc2nc3ccc(Cl)cc3s2)nc2cc(C(=O)NCCO)ccc21` [Example 30, 2-(6-Chloro-benzothiazol-2-ylamino)-1-methyl-1H-benzoimidazole-5-carboxylic acid (2-hydroxy-ethyl)-amide], for which the fold induction at 5 µM turned out to be 21.4.
